{"source": "ChEMBL document CHEMBL4765274", "about": "“The development of advanced structural framework as multi-target-directed ligands for the treatment of Alzheimer's disease” (Eur J Med Chem, 2020)", "key": {"[1]": {"system": "HT-22", "experiment": "Activation of ubiquitin-proteasome system in mouse HT-22 cells expressing pEGFP-N1-APP assessed as increase in APP degradation by measuring reduction in GFP level at 2.5 to 20 uM after 24 hrs by flow cytometric analysis", "assay_type": "cell-based", "conditions": "filed as activator, dose 2.5-20 µM"}, "[2]": {"species_on_record": "Danio rerio", "experiment": "Antialzheimer activity in Alcl3-induced zebra fish AD model assessed as increase in motility at 0.09 ug/ml relative to control", "assay_type": "functional", "conditions": "dose 0.09 µg/ml"}, "[3]": {"experiment": "Metal chelating activity assessed as Zn2+-compound complex formation in methanol at 37.5 uM by UV-Visible spectra analysis"}, "[4]": {"system": "Mus musculus", "experiment": "Antialzheimer activity in scopolamine-induced Kunming mouse model of memory impairment assessed as total mapped in brain hippocampus at 5 mg/kg , po by illumina sequencing method (reference value: 97.13%)", "assay_type": "functional"}, "[5]": {"experiment": "Metal chelating activity assessed as Al3+-compound complex formation in methanol at 37.5 uM by UV-Visible spectra analysis"}, "[6]": {"species_on_record": "Danio rerio", "experiment": "Antialzheimer activity in Alcl3-induced zebra fish AD model assessed as increase in motility at 0.78 ug/ml relative to control", "assay_type": "functional", "conditions": "dose 0.78 µg/ml"}, "[7]": {"experiment": "Metal chelating activity assessed as Cu2+-compound complex formation in water at 37.5 uM by UV-Visible spectra analysis"}, "[8]": {"system": "PC-12", "experiment": "Cytotoxicity against rat PC-12 cells assessed as reduction in cell viability up to 100 uM after 48 hrs by MTT assay", "assay_type": "cell-based", "conditions": "pc-12, 48 h"}, "[9]": {"experiment": "Toxicity in 2 dpf zebra fish assessed as dark brown liver at 25 ug/ml after 3 days relative to control", "design": "species or system Danio rerio", "conditions": "zebrafish, 72 h, at 25 µg/mL, time 3 day"}, "[10]": {"experiment": "Toxicity in 3 dpf zebra fish assessed as mortality at 50 ug/ml (reference value: 0%)", "design": "species or system Danio rerio", "conditions": "zebrafish, at 50 µg/mL, read-out: Activity"}, "[11]": {"experiment": "Toxicity in 2 dpf zebra fish assessed as absent blood flow at 25 ug/ml after 3 days relative to control", "assay_type": "tissue-based, Danio rerio", "conditions": "zebrafish, 72 h, at 25 µg/mL, time 3 day"}, "[12]": {"experiment": "Metal chelating activity assessed as Fe2+-compound complex formation in PBS buffer at pH 7.4 at 37.5 uM by UV-Visible spectra analysis"}, "[13]": {"species_on_record": "Danio rerio", "experiment": "Antialzheimer activity in Alcl3-induced zebra fish AD model assessed as increase dyskinesia recovery rate at 0.09 ug/ml relative to control", "assay_type": "functional", "conditions": "dose 0.09 µg/ml"}, "[14]": {"experiment": "Toxicity in 2 dpf zebra fish at 25 ug/ml after 3 days", "design": "species or system Danio rerio", "conditions": "zebrafish, 72 h; dose 25 µg/ml, time 3 day"}, "[15]": {"experiment": "Metal chelating activity assessed as Fe2+-compound complex formation in methanol at 37.5 uM by UV-Visible spectra analysis"}, "[16]": {"experiment": "Toxicity in 3 dpf zebra fish assessed as mortality at 25 ug/ml (reference value: 0%)", "design": "species or system Danio rerio", "conditions": "zebrafish, at 25 µg/mL, read-out: Activity"}, "[17]": {"experiment": "Toxicity in Kunming mouse assessed as abnormal behavior up to 5000 mg/kg, po after 14 days", "assay_type": "organism-based", "conditions": "in vivo, 336 h, time 14 day"}, "[18]": {"species_on_record": "Danio rerio", "experiment": "Antialzheimer activity in amyloid beta (1 to 40 residues)-induced zebra fish AD model assessed as reduction in vascular injury at 0.09 ug/ml relative to control", "assay_type": "functional", "design": "scale not given: the % may be the effect or the level left", "conditions": "dose 0.09 µg/ml"}, "[19]": {"target": "T1, Cholinesterase (Homo sapiens, UniProt P06276)", "T1 sequence (P06276 whole entry)": "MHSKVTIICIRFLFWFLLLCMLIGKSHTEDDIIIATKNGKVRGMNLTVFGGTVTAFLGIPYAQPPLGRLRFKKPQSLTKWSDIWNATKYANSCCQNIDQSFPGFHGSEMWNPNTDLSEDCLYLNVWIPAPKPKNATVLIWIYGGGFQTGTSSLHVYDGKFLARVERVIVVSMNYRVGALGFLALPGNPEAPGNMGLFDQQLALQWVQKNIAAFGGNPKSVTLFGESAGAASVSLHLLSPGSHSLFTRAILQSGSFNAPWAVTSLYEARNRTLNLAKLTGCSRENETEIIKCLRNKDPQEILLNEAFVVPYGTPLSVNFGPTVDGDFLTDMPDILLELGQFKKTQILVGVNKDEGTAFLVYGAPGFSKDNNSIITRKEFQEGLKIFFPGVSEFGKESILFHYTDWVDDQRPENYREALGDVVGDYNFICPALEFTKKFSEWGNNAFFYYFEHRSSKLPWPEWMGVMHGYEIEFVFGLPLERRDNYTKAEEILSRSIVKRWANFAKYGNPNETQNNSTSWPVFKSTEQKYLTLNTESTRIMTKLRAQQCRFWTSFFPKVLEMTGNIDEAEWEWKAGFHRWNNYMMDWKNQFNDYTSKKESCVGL", "experiment": "Reversible inhibition of human BChE assessed as residual activity at IC50 concentration relative to control"}, "[20]": {"target": "T1, Cholinesterase", "experiment": "Reversible inhibition of human BChE assessed as residual activity at 0.1 times of IC50 concentration after 240 mins relative to control"}, "[21]": {"system": "HT-22", "experiment": "Activation of ubiquitin-proteasome system in mouse HT-22 cells expressing pRK5-GFP-Tau assessed as increase in tau degradation by measuring reduction in GFP level after 24 hrs by flow cytometric analysis", "assay_type": "cell-based", "conditions": "filed as activator, dose 2.5-20 µM"}, "[22]": {"experiment": "Toxicity in 2 dpf zebra fish assessed as edema in kidney at 25 ug/ml after 3 days relative to control", "design": "species or system Danio rerio", "conditions": "zebrafish, 72 h, at 25 µg/mL, time 3 day"}, "[23]": {"experiment": "Metal chelating activity assessed as Zn2+-compound complex formation in PBS buffer at pH 7.4 at 37.5 uM by UV-Visible spectra analysis"}, "[24]": {"experiment": "Metal chelating activity assessed as Al3+-compound complex formation in PBS buffer at pH 7.4 at 37.5 uM by UV-Visible spectra analysis"}, "[25]": {"system": "Mus musculus", "experiment": "Antialzheimer activity in scopolamine-induced Kunming mouse model of memory impairment assessed as latency time at 50 mg/kg , po by step-down passive avoidance test (reference value: 125.65 sec)", "assay_type": "functional"}, "[26]": {"experiment": "Toxicity in 2 dpf zebra fish assessed as degenerating muscle within the somites at 25 ug/ml after 3 days relative to control", "design": "species or system Danio rerio", "conditions": "zebrafish, 72 h, at 25 µg/mL, time 3 day"}, "[27]": {"target": "T2, Acetylcholinesterase (Homo sapiens, UniProt P22303)", "T2 sequence (P22303 whole entry)": "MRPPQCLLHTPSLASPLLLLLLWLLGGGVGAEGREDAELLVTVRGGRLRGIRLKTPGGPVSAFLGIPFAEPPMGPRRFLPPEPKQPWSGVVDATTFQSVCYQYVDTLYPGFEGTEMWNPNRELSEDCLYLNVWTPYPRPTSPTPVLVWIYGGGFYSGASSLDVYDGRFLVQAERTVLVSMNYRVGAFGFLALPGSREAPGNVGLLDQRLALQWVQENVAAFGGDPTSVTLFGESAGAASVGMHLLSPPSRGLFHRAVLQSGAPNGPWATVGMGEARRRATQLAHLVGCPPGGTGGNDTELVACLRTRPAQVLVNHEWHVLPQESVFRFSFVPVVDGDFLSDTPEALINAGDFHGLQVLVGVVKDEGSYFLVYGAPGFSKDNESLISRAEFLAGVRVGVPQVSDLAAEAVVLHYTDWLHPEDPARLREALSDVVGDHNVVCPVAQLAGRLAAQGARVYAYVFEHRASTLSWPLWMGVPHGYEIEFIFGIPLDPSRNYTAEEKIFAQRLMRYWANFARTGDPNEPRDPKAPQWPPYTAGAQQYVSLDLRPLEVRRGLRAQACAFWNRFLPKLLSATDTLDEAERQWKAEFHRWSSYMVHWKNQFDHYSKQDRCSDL", "experiment": "Mixed type inhibition of human AChE using acetylthiocholine as substrate by Line-weaver Burk plot analysis"}, "[28]": {"experiment": "Toxicity in 2 dpf zebra fish assessed as short or misshapen eye at 25 ug/ml after 3 days relative to control", "design": "species or system Danio rerio", "conditions": "zebrafish, 72 h, at 25 µg/mL, time 3 day"}, "[29]": {"target": "T1, Cholinesterase", "experiment": "Reversible inhibition of human BChE assessed as residual activity at 0.1 times of IC50 concentration relative to control"}, "[30]": {"system": "SH-SY5Y", "experiment": "Neuroprotective activity against amyloid beta (1 to 42 residues)-induced cytotoxicity in human SH-SY5Y cells assessed as increase in cell viability at 1 to 10 uM incubated for 48 hrs by MTT assay", "assay_type": "functional, cell-based", "conditions": "dose 1-10 µM"}, "[31]": {"species_on_record": "Danio rerio", "experiment": "Antialzheimer activity in Alcl3-induced zebra fish AD model assessed as increase in motility at 0.26 ug/ml relative to control", "assay_type": "functional", "conditions": "dose 0.26 µg/ml"}, "[32]": {"target": "T1, Cholinesterase", "experiment": "Inhibition of human BChE assessed as residual activity at IC50 concentration relative to control"}, "[33]": {"system": "Mus musculus", "experiment": "Antialzheimer activity in scopolamine-induced Kunming mouse model of memory impairment assessed as Q30 bases ratio (raw data) in brain hippocampus at 5 mg/kg , po by illumina sequencing method (reference value: 93.53%)", "assay_type": "functional"}, "[34]": {"experiment": "Toxicity in 3 dpf zebra fish assessed as pericardium edema at 1.56 ug/ml", "design": "species or system Danio rerio", "conditions": "zebrafish; dose 1.56 µg/ml"}, "[35]": {"species_on_record": "Danio rerio", "experiment": "Antialzheimer activity in Alcl3-induced zebra fish AD model assessed as increase dyskinesia recovery rate at 0.78 ug/ml relative to control", "assay_type": "functional", "conditions": "dose 0.78 µg/ml"}, "[36]": {"experiment": "Inhibition of Cu2+-induced amyloid beta (unknown origin) aggregation after 24 hrs by TEM analysis"}, "[37]": {"target": "T2, Acetylcholinesterase", "experiment": "Inhibition of AChE in human erythrocytes by Ellman's method", "assay_type": "cell-based, Erythrocyte"}, "[38]": {"system": "SH-SY5Y", "experiment": "Cytotoxicity against human SH-SY5Y cells assessed as cell viability up to 100 uM after 48 hrs by MTT assay relative to control", "assay_type": "cell-based"}, "[39]": {"system": "Mus musculus", "experiment": "Antialzheimer activity in scopolamine-induced Kunming mouse model of memory impairment assessed as latency time at 5 mg/kg , po by step-down passive avoidance test (reference value: 125.65 sec)", "assay_type": "functional"}, "[40]": {"experiment": "(§1) Binding affinity to amyloid beta (1 to 42 residues) (unknown origin) by biolayer interferometry analysis", "design": "species or system Homo sapiens"}, "[41]": {"species_on_record": "Homo sapiens", "experiment": "as §1"}, "[42]": {"experiment": "Effect on GFP expression in mouse HT-22 cells expressing pEGFP-N1 at 10 uM after 24 hrs by flow cytometric analysis", "assay_type": "ADME, cell-based", "conditions": "ht-22, 24 h"}}, "note": "The source made the active and inactive calls. No cut-off for these calls is given here."}
{"smiles": "CCN(CCCCOc1ccc(-c2cc(=O)c3c(O)cc(OCCCCN(CC)Cc4ccccc4)cc3o2)cc1)Cc1ccccc1", "values": [{"measurement": "Activity", "setting": "[1]", "result": "Active"}, {"measurement": "Activity", "setting": "[2]", "result": 72, "unit": "%"}, {"measurement": "Activity", "setting": "[3]", "result": "inactive"}, {"measurement": "Activity", "setting": "[4]", "result": 97.39, "unit": "%"}, {"measurement": "Activity", "setting": "[5]", "result": "Active"}, {"measurement": "Activity", "setting": "[6]", "result": 84, "unit": "%"}, {"measurement": "Activity", "setting": "[7]", "result": "inactive"}, {"measurement": "Activity", "setting": "[8]", "result": "Non-Toxic"}, {"measurement": "Activity", "setting": "[9]", "result": 100, "unit": "%"}, {"measurement": "mortality at 50 ug/ml", "setting": "[10]", "result": 100, "unit": "%"}, {"measurement": "Activity", "setting": "[11]", "result": 53.3, "unit": "%"}, {"measurement": "Activity", "setting": "[12]", "result": "Active"}, {"measurement": "Activity", "setting": "[13]", "result": 67, "unit": "%"}, {"measurement": "Activity", "setting": "[14]", "result": "Non-Toxic"}, {"measurement": "Activity", "setting": "[15]", "result": "Active"}, {"measurement": "mortality at 25 ug/ml", "setting": "[16]", "result": 100, "unit": "%"}, {"measurement": "Activity", "setting": "[17]", "result": "Non-Toxic"}, {"measurement": "Activity", "setting": "[18]", "result": 9, "unit": "%"}, {"measurement": "Activity", "setting": "[19]", "result": 42.3, "unit": "%"}, {"measurement": "Activity", "setting": "[20]", "result": 97.6, "unit": "%"}, {"measurement": "Activity", "setting": "[21]", "result": "Dose-dependent effect"}, {"measurement": "Activity", "setting": "[22]", "result": 66.7, "unit": "%"}, {"measurement": "Activity", "setting": "[23]", "result": "inactive"}, {"measurement": "Activity", "setting": "[24]", "result": "inactive"}, {"measurement": "Time", "setting": "[25]", "result": 227.34, "unit": "s"}, {"measurement": "Activity", "setting": "[26]", "result": 33.3, "unit": "%"}, {"measurement": "Ki", "setting": "[27]", "result": 394, "unit": "nM"}, {"measurement": "Activity", "setting": "[28]", "result": 433, "unit": "%"}, {"measurement": "Activity", "setting": "[29]", "result": 50, "unit": "%"}, {"measurement": "Activity", "setting": "[30]", "result": "Active"}, {"measurement": "Activity", "setting": "[31]", "result": 81, "unit": "%"}, {"measurement": "Activity", "setting": "[32]", "result": 49.7, "unit": "%"}, {"measurement": "Activity", "setting": "[33]", "result": 93.58, "unit": "%"}, {"measurement": "Activity", "setting": "[34]", "result": "Toxic"}, {"measurement": "Activity", "setting": "[35]", "result": 87, "unit": "%"}, {"measurement": "inhibition", "setting": "[36]", "result": "Active"}, {"measurement": "IC50", "setting": "[37]", "result": 360, "unit": "nM"}, {"measurement": "Activity", "setting": "[38]", "result": "Non-Toxic"}, {"measurement": "Time", "setting": "[39]", "result": 261.82, "unit": "s"}, {"measurement": "Kd", "setting": "[40]", "result": 1200, "unit": "nM"}, {"measurement": "Activity", "setting": "[41]", "result": "Dose-dependent effect"}, {"measurement": "Activity", "setting": "[42]", "result": "Non-Toxic"}]}
